Data from patent US20180289009A1 (Synexis LLC, priority 2015, published 2018).
Several values for one entry are separate records, joined by “and”; a condition that tells them apart may be missing. Identical values can stand only once. Like-named read-outs stand apart in the source and are kept apart here.

Assays:
Enterococcus faecalis = conditions: DHP gas 0.5-1.0 ppm
C. difficile (spores) = conditions: DHP gas 0.5-1.0 ppm, 3.78 × 10^6 per inch^2
[1] = test system: Geobacillus stearothermophilus spores
H1N1 virus = conditions: DHP gas 0.6 ppm, 1.12 × 10^6 per inch^2
MS2 bacteriophage = conditions: DHP gas 0.6 ppm; 1.25 × 10^3 per inch^2
[2] = test system: Aspergillus Niger (vegetative); conditions: vegetative form; DHP gas 0.3 ppm; 2.2 × 10^4 per inch^2
Streptococcus pyogenes = conditions: DHP gas 0.6 ppm; 5 × 10^4 per inch^2
Feline calicivirus = conditions: DHP gas 0.6 ppm; ~1 × 10^8 per inch^2
[3] = test system: mold spoilage on fresh strawberries; conditions: DHP gas 0.1-0.4 ppm; 5 days; 73-78° F.; humidity 40-65%
Experimental: Experiments are conducted in a 1584 cubic foot test room. The temperature of test room is maintained between 73° F. and 78° F., and the humidity of the ambient air is between 40% and 65%. […] After the 5-day incubation period, the strawberries are evaluated for the presence of mold spoilage.

[4] = Log2 spore strip, 72 hours exposure to DHP gas at about 0.3 ppm
[5] = Log 2 spore strip, 144 hours exposure to DHP gas at about 0.3 ppm
[6] = Log 2 spore strip, 216 hours exposure to DHP gas at about 0.3 ppm
[7] = Log2 spore strip, 288 hours exposure to DHP gas at about 0.3 ppm
[8] = Log3 spore strip, 40 hours exposure to DHP gas at about 0.3 ppm
[9] = Log3 spore strip, 47.75 hours exposure to DHP gas at about 0.3 ppm
[10] = Log3 spore strip, 60.2 hours exposure to DHP gas at about 0.3 ppm
[11] = Log3 spore strip, 67.5 hours exposure to DHP gas at about 0.3 ppm
[12] = Log3 spore strip, 100 hours exposure to DHP gas at about 0.3 ppm
[13] = Log 3 spore strip, 144 hours exposure to DHP gas at about 0.3 ppm
[14] = Log 3 spore strip, 216 hours exposure to DHP gas at about 0.3 ppm
[15] = Log4 spore strip, 121.4 hours exposure to DHP gas at about 0.3 ppm
[16] = Log4 spore strip, 192 hours exposure to DHP gas at about 0.3 ppm
[17] = Log 4 spore strip, 216 hours exposure to DHP gas at about 0.3 ppm
[18] = Log4 spore strip, 223.5 hours exposure to DHP gas at about 0.3 ppm
[19] = Log4 spore strip, 288 hours exposure to DHP gas at about 0.3 ppm

OO [DHP gas, hydrogen peroxide]
Time to 90% reduction (Enterococcus faecalis): <2 h
Reduction at 24 hours (C. difficile (spores)): 70.4% at 24
Biological Change [1, 4]: turbidity
Color Change within 24 hour incubation [1, 4]: light yellow
Time of Change [1, 4]: 15 h
Color Change within 24 hour incubation [1, 5]: very dark orange
Time of Change [1, 5]: 22 h
Color Change within 24 hour incubation ([1]; Log 2 spore strip, 166.5 hours exposure to DHP gas at about 0.3 ppm): may have changed
Biological Change [1, 6]: no turbidity
Color Change within 24 hour incubation [1, 6]: very dark orange
Time of Change [1, 6]: 22 h
Biological Change [1, 7]: no turbidity
Color Change within 24 hour incubation [1, 7]: very light orange
Time of Change [1, 7]: 17 h
Biological Change [1, 8]: Heavy turbidity
Color Change within 24 hour incubation [1, 8]: + Light orange
Color Change within 24 hour incubation ([1]; Log3 spore strip, 42 hours exposure to DHP gas at about 0.3 ppm): +
Color Change within 24 hour incubation ([1]; Log3 spore strip, 45.5 hours exposure to DHP gas at about 0.3 ppm): +
Biological Change [1, 9]: Less turbidity
Color Change within 24 hour incubation [1, 9]: + Dark orange
Biological Change [1, 10]: Heavy turbidity
Color Change within 24 hour incubation [1, 10]: +
Color Change within 24 hour incubation ([1]; Log3 spore strip, 64.2 hours exposure to DHP gas at about 0.3 ppm): +
Color Change within 24 hour incubation ([1]; Log3 spore strip, 64.5 hours exposure to DHP gas at about 0.3 ppm): +
Biological Change [1, 11]: Almost no turbidity
Color Change within 24 hour incubation [1, 11]: +
Color Change within 24 hour incubation ([1]; Log3 spore strip, 70 hours exposure to DHP gas at about 0.3 ppm): +
Color Change within 24 hour incubation ([1]; Log3 spore strip, 85.1 hours exposure to DHP gas at about 0.3 ppm): +
Color Change within 24 hour incubation ([1]; Log3 spore strip, 89 hours exposure to DHP gas at about 0.3 ppm): +
Color Change within 24 hour incubation [1, 12]: +
Time of Change [1, 12]: 16 h and 22 to 24 h
Biological Change [1, 13]: no turbidity
Color Change within 24 hour incubation [1, 13]: very light orange
Time of Change [1, 13]: 16.5 h
Color Change within 24 hour incubation ([1]; Log 3 spore strip, 166.5 hours exposure to DHP gas at about 0.3 ppm): −
Biological Change [1, 14]: no turbidity
Color Change within 24 hour incubation [1, 14]: very dark orange
Time of Change [1, 14]: 22 h
Biological Change [1, 15]: almost no turbidity
Color Change within 24 hour incubation [1, 15]: −
Time of Change [1, 15]: 8 to 15 h and 15 h
Time of Change ([1]; Log4 spore strip, 144 hours exposure to DHP gas at about 0.3 ppm): 17 h and 16.5 h
Color Change within 24 hour incubation ([1]; Log 4 spore strip, 166.5 hours exposure to DHP gas at about 0.3 ppm): −
Color Change within 24 hour incubation ([1]; Log4 spore strip, 168 hours exposure to DHP gas at about 0.3 ppm): −
Color Change within 24 hour incubation [1, 16]: −
Time of Change [1, 16]: 15 h
Biological Change [1, 17]: no turbidity
Color Change within 24 hour incubation [1, 17]: very dark orange
Time of Change [1, 17]: 22 h
Biological Change [1, 18]: no turbidity
Time of Change [1, 18]: 14 h and 22 h
Biological Change [1, 19]: no turbidity
Color Change within 24 hour incubation [1, 19]: darker orange
Time of Change [1, 19]: 17 h
Time to 90% reduction (H1N1 virus): less than 30 minutes
Time to 90% reduction (H1N1 virus; listed as DHP Gas): 22.9 min
Time to 90% reduction (MRSA; soil load not stated): under 5 hours
Time to 90% reduction (MRSA; with soil load, DHP gas 0.6 ppm, 0.5 × 10^5 per inch^2): 4.6 h
Time to 90% reduction (MRSA; without soil load, DHP gas 0.6 ppm, 1 × 10^5 per inch^2): 2.6 h
Time to 90% reduction (MS2 bacteriophage): <4 h
Time to 90% reduction [2]: 7 h
Time to 90% reduction (Streptococcus pyogenes): <4 h
Time to 90% reduction (Feline calicivirus): <2 h
Mold spoilage after 5-day incubation [3]: no signs of mold spoilage
